Columns and labels:
[1] = test system: Nodal; experiment: Nodal expression in C8161 cells (Western blot, real time RT-PCR); assay type: cell-based, human; settings: anti-Nodal Morpholino
Experimental: A determination of the effects of H9 CMTX on Nodal expression in metastatic melanoma (C8161) and breast carcinoma (MDA-MB-231) cells was undertaken. […] Exposure to H9 CMTX similarly abrogates Nodal mRNA expression in the melanoma and breast carcinoma cells (FIG. 9C).
Protein lysates were prepared and quantified as previously described in Hess et al., 2001, Cancer Res. 61:3250-3255. Equal amounts of protein were separated by SDS-polyacrylamide gel electrophoresis under reducing conditions, and the resolved proteins were transferred onto Immobilon-P membranes (Millipore Corp., Bedford, Mass.). Membranes were blocked in 1% TBS, 0.1% Tween 20 (TBS-T) and 5% dry milk powder or 3% gelatin (for Nodal Westerns). Blots were incubated with anti-Nodal or anti-Lefty antibodies (Polyclonal rabbit anti-Nodal (H-110) 1:500 Santa Cruz Biotechnology, Santa Cruz, Calif.; Polyclonal goat anti-Lefty 1:500 R&D Systems, Minneapolis, Minn.), washed in TBS-T, and incubated with the appropriate horseradish peroxidase-labeled secondary antibody. Secondary antibodies were detected by enhanced chemiluminescence (Super Signal; Pierce, Rockford, Ill.) and exposure to autoradiography film (Molecular Technologies, St Louis, Mo.). Nodal protein was detected as two major bands at ˜48 and ˜35 kDa representing precursor and pro-Nodal respectively. Nodal often appeared as multiple bands, likely due to degradation of protein modifications. All experiments were done at least three times.
The derivation and phenotypic characteristics of the human melanoma cell lines have been previously described. Seftor, et. al., 2002, Clin. Experim. Metastas. 19:233-246; Seftor, et. al., 2005 Cancer Res. 65:10164-10169. The melanoma cell lines are maintained in RPMI 1640 medium (Invitrogen) supplemented with 10% fetal bovine serum (FBS, Gemini Bioproducts) and 0.1% gentamycin sulfate with the exception of C81-61 cells which are maintained in Ham's FIO medium supplemented with 15% FBS, 1X Mito+ (BD Bioscience) and gentamycin sulfate. […] The cultures are determined to be free of mycoplasma contamination using a PCR-based assay (Roche). […]

[2] = test system: Nodal; experiment: Immunohistochemical analysis of Nodal staining in orthotopic C8161 tumors; assay type: in vivo, mouse; settings: tumors from C8161 treated with anti-Nodal Morpholino, day 17
[3] = test system: MDA-MB-231 breast carcinoma cells; experiment: In vivo tumor cell proliferation-to-apoptosis ratio (Ki67/TUNEL), MDA-MB-231 derived tumors; settings: MDA-MB-231 treated before injection into mouse
Excerpt: (§1) (A) In vivo tumor formation in a mouse injected with MDA-MB-231 cells pre-exposed for 3 days to either a control matrix (Matrigel) or a matrix conditioned by hESCs (H9 CMTX) (n=10) (B) C81-61 cells, transfected with either an empty vector or a Nodal expression construct (n=5), and (C) MDA-MB-231 cells treated with either MO^Control or MO^Nodal (n=10). […] (D) The ratio of tumor cell proliferation to apoptosis for C8161 and MDA-MB-231 derived tumors, determined by immunohistochemical staining for Ki67 and terminal deoxynucleotidyl transferase biotin-dUTP nick-end labeling (TUNEL). Prior to injection into a mouse, C8161 and MDA-MB-231 cells were cultured for 3 days on control or hESC conditioned (H9 CMTX) matrices, or treated with MO^Nodal to knock down Nodal expression. […] (E) Immunohistochemical analysis of Ki67 expression (red/brown) and TUNEL staining in orthotopic melanoma (C8161) and breast carcinoma (MDA-MB-231) tumors. […] Proliferation is indicated by Ki67 staining and apoptotic nuclei were detected with confocal microscopy as red staining localized to the nuclei of apoptotic C8161 or MDA-MB-231 cells. […]
(§2) In order to establish a mechanism by which exposure to the hESC microenvironment abrogates tumorigenicity, the effects of this treatment on the in vivo tumor cell proliferation-to-apoptosis ratio were analyzed. […]

[4] = test system: C8161 melanoma cells; experiment: In vivo tumor cell proliferation-to-apoptosis ratio (Ki67/TUNEL), C8161 derived tumors; settings: C8161 treated before injection into mouse
Excerpt: as §1, §2

MO^Nodal: FITC-conjugated anti-sense Morpholino to Nodal, 5′-AAGCAGCACCTCCAGCCCTTATATC-3′ [SEQ ID NO: 20] (all phosphorodiamidate morpholino (PMO); FITC conjugated, position not given here)
Nodal expression [1]: down-regulation of Nodal
Nodal expression in tumors (IHC) [2]: started to regain Nodal expression
ratio of proliferation to apoptosis [3]: decreased
ratio of proliferation to apoptosis [4]: decreased

From patent publication US8106004B2, “Methods of inhibiting tumor cell aggressiveness using the microenvironment of human embryonic stem cells” (Children's Memorial Hospital, priority 2006, dated 2012)
